Several values for one entry are separate records, joined by “and”; a condition that tells them apart may be missing. Equal values may be shown once. Activity calls are given as the source filed them. No cut-off for these calls is given here.
Assays:
[1] = tested on: Streptococcus pyogenes; assay: Antibiotic activity against Streptococcus pyogenes assessed as reduction in bacterial growth by Alamar Blue dye based CLSI broth microdilution method; format: functional
[2] = tested on: Staphylococcus aureus; assay: Antibiotic activity against Staphylococcus aureus ATCC 13709 assessed as reduction in bacterial growth by Alamar Blue dye based CLSI broth microdilution method; format: functional
[3] = tested on: Nakaseomyces glabratus; assay: Antibiotic activity against Candida glabrata assessed as reduction in fungal growth by Alamar Blue dye based CLSI broth microdilution method; format: functional
[4] = tested on: Bacillus subtilis; assay: Antibiotic activity against Bacillus subtilis ATCC 6633 assessed as reduction in bacterial growth by Alamar Blue dye based CLSI broth microdilution method; format: functional
[5] = tested on: Candida albicans; assay: Antibiotic activity against Candida albicans assessed as reduction in fungal growth by Alamar Blue dye based CLSI broth microdilution method; format: functional
[6] = tested on: Bacillus anthracis; assay: Antibiotic activity against Bacillus anthracis assessed as reduction in bacterial growth by Alamar Blue dye based CLSI broth microdilution method; format: functional
[7] = tested on: Staphylococcus aureus; assay: Antibiotic activity against multidrug-resistant Staphylococcus aureus NE277 assessed as reduction in bacterial growth by Alamar Blue dye based CLSI broth microdilution method; format: functional, organism-based
[8] = tested on: Staphylococcus aureus; assay: Antibiotic activity against multidrug-resistant Staphylococcus aureus CAIRD116 assessed as reduction in bacterial growth by Alamar Blue dye based CLSI broth microdilution method; format: functional, organism-based
[9] = tested on: Staphylococcus aureus; assay: Antibiotic activity against multidrug-resistant Staphylococcus aureus CAIRD142 assessed as reduction in bacterial growth by Alamar Blue dye based CLSI broth microdilution method; format: functional, organism-based
[10] = tested on: Staphylococcus aureus; assay: Antibiotic activity against multidrug-resistant Staphylococcus aureus CAIRD148 assessed as reduction in bacterial growth by Alamar Blue dye based CLSI broth microdilution method; format: functional, organism-based
[11] = tested on: Klebsiella pneumoniae; assay: Antibiotic activity against Klebsiella pneumoniae ATCC 10031 assessed as reduction in bacterial growth by Alamar Blue dye based CLSI broth microdilution method; format: functional, organism-based
[12] = tested on: Escherichia coli; assay: Antibiotic activity against Escherichia coli ATCC 25922 assessed as reduction in bacterial growth by Alamar Blue dye based CLSI broth microdilution method; format: functional, organism-based
[13] = tested on: Pseudomonas aeruginosa; assay: Antibiotic activity against Pseudomonas aeruginosa assessed as reduction in bacterial growth by Alamar Blue dye based CLSI broth microdilution method; format: functional, organism-based

| SMILES | MIC [1] | MIC [2] | MIC [3] | MIC [4] | MIC [5] | MIC [6] | Activity [7] | Activity [8] | Activity [9] | Activity [10] | Activity [11] | Activity [12] | Activity [13] |
| --- | --- | --- | --- | --- | --- | --- | --- | --- | --- | --- | --- | --- | --- |
| C[C@@H]1CCC(O)CCCCCC[C@H](OC(=O)CCC(=O)O)C(=O)/C=C/C(=O)O1 (some centres undefined) | 250 µM and 100 µg/mL | 32 µM and 13 µg/mL | > 500 µM and > 200 µg/mL | 125 µM and 50 µg/mL | > 500 µM and > 200 µg/mL | 64 µM and 26 µg/mL | Active | Active | Active | Active | – | – | – |
| C[C@@H]1CCCCCCCCCC[C@H](O)/C=C/C(=O)O1 | 250 µM and 67 µg/mL | 125 µM and 33 µg/mL | > 250 µM and > 67 µg/mL | 125 µM and 33 µg/mL | > 250 µM and > 67 µg/mL | 125 µM and > 67 µg/mL | – | – | – | – | – | – | – |
| COC(=O)[C@]12C(=O)[C@]3(C)O[C@](C)(C=C4[C@]5(C=O)CC[C@H](OC(C)=O)C(C)(C)[C@H]5CC[C@@]41C)[C@@]2(C)C3=O | – | 125 µM and 62 µg/mL | > 500 µM and > 248 µg/mL | 250 µM and 124 µg/mL | > 500 µM and > 248 µg/mL | 125 µM and 62 µg/mL | – | – | – | – | inactive | inactive | inactive |
| C[C@@H](O)CCCCCCCCC[C@H](O)[C@H]1CCC(=O)O1 | 16 µM and 5 µg/mL | 500 µM and 143 µg/mL | > 500 µM and > 143 µg/mL | > 500 µM and > 143 µg/mL | > 500 µM and > 143 µg/mL | > 500 µM and > 143 µg/mL | – | – | – | – | inactive | inactive | inactive |
| C[C@@H]1CCCCCCCCC[C@H](O)[C@H](O)/C=C/C(=O)O1 | > 250 µM and > 71 µg/mL | 250 µM and 71 µg/mL | > 250 µM and > 71 µg/mL | > 250 µM and > 71 µg/mL | > 250 µM and > 71 µg/mL | 250 µM and > 71 µg/mL | – | – | – | – | – | – | – |
| C[C@@H](O)CCCCCCCCC[C@H](OC(=O)CCC(=O)O)[C@H]1CCC(=O)O1 | > 500 µM and 193 µg/mL | 500 µM and 193 µg/mL | 500 µM and 193 µg/mL | 500 µM and 193 µg/mL | 125 µM and 48 µg/mL | > 500 µM and 193 µg/mL | – | – | – | – | inactive | inactive | inactive |
| C[C@@H]1CCCCCCCCC[C@H](OC(=O)CCC(=O)O)[C@H](O)CCC(=O)O1 | > 500 µM and > 45 µg/mL | > 500 µM and > 45 µg/mL | > 500 µM and > 45 µg/mL | > 500 µM and > 45 µg/mL | > 500 µM and > 45 µg/mL | > 500 µM and > 45 µg/mL | – | – | – | – | inactive | inactive | inactive |
| C[C@@H]1CCCCCCCCC[C@H](OC(=O)CCC(=O)O)C(=O)/C=C/C(=O)O1 | 125 µM and 48 µg/mL | 8 µM and 3 µg/mL | 125 µM and 48 µg/mL | 32 µM and 12 µg/mL | 250 µM and 96 µg/mL | 16 µM and 6 µg/mL | Active | Active | Active | Active | – | – | – |
| C[C@@H]1CCCCCCCCC[C@H](O)[C@H](OC(=O)CCC(=O)O)/C=C/C(=O)O1 | > 250 µM and > 90 µg/mL | 125 µM and 45 µg/mL | > 250 µM and > 90 µg/mL | 125 µM and 45 µg/mL | > 250 µM and > 90 µg/mL | 250 µM and > 90 µg/mL | – | – | – | – | – | – | – |
| C[C@@H]1CCCCCCCCC[C@H](OC(=O)CCC(=O)O)[C@H](O)/C=C/C(=O)O1 | > 250 µM and > 90 µg/mL | 125 µM and 45 µg/mL | > 250 µM and > 90 µg/mL | > 250 µM and > 90 µg/mL | > 250 µM and > 90 µg/mL | > 250 µM and > 90 µg/mL | – | – | – | – | – | – | – |

Reference: ChEMBL document CHEMBL4840376, “Berkeleylactones and a Citreohybriddione Analogue from Penicillium turbatum” (2021)
